Assay results as given in PMC8482815, “Targeting Host Glycolysis as a Strategy for Antimalarial Development” (Frontiers in Cellular and Infection Microbiology, 2021).
Values joined by “and” are separate entries in the source; they are usually repeats but may differ in a detail not shown here. Equal values may be shown once.

System: human erythrocytes
Experiment: Untargeted metabolomics and 13C-glucose tracing of enolase inhibitor treated erythrocytes
Type: cell-based
Conditions: 0h
Procedure: Freshly collected erythrocytes were washed, resuspended to 10% hematocrit in buffer [25mM HEPES (pH 7.4), 120mM NaCl, 5.4mM KCl, 1.8mM CaCl2, and 1mM NaH2PO4], incubated for 1 hour at 37°C, then centrifuged at 2000xg for 5 minutes at 4°C, resuspended in fresh wash buffer to 30-40% hematocrit, and split into 210µL aliquots of packed erythrocytes. […] All samples were incubated at 37°C shaking at 500 RPM. Triplicate samples of supernatants and packed erythrocytes were collected at 0, 0.5, 1, and 6-hour intervals and snap-frozen in liquid N2.
RBC and media samples were extracted at 1:10 and 1:20 dilutions, respectively, in 5:3:2 MeOH : MeCN:H2O v/v/v, and supernatants analyzed on a Thermo Vanquish UHPLC coupled to a Thermo Q Exactive mass spectrometer, as extensively described ([Nemkov et al., 2015]; [Nemkov et al., 2017]). The extraction buffer was supplemented with 40uM 3-^13C lactate to allow absolute quantification of lactate isotopologues, including lactate generated via glycolysis ([1,2,3-^13C3] enriched) vs. the pentose phosphate pathway ([2,3-^13C2] enriched), as described ([Reisz et al., 2016]). Metabolite assignments, peak area integration and isotopologues distributions were determined using Maven (Princeton University) ([Nemkov et al., 2015]; [Nemkov et al., 2017]).
Data were auto-scaled and normalized to zero-hour time points. Metabolites were removed from the dataset if greater than 50% of the samples contained missing values or the relative standard deviation among replicates exceeded 25%. Additionally, data was filtered using the interquartile range to reduce near-constant values from the experiment by 5%.
A principal component analysis of preprocessed data was plotted with the 95% confidence interval minimum volume enclosing ellipsoid for each respective group (MetaboAnalyst, cluster, plotly). A two-way repeated measures analysis of variance (ANOVA) was performed with multiple comparisons corrected for using a false discovery rate p-value cutoff of 0.05. Metabolite-Pathway analysis was performed using the R package of MetaboAnalyst, as previously described ([Xia and Wishart, 2010]). Metabolite-Protein nodal analysis was performed using omicsnet.ca and as previously described ([Zhou and Xia, 2018]).

[1] = treated erythrocytes, one value per replicate sample, polarity +
[2] = treated erythrocytes, one value per replicate sample, polarity -
[3] = treated erythrocytes, replicate samples

## CC(C)(C)C(=O)OCOP(=O)(OCOC(=O)C(C)(C)C)C1CC(O)N(O)C1=O (stereo not shown) [POMSF]
Replicate samples
  AMP level (metabolomics signal): 1.48E+06 and 1.22E+06 and 1.21E+06
  ATP level (metabolomics signal): 1.36E+04 and 1.16E+04 and 9.69E+03
  Adenine level (metabolomics signal): 1.41E+05 and 1.42E+05 and 1.51E+05
  Cytosine level (metabolomics signal): 4.50E+04 and 5.15E+04 and 1.27E+05
  L-alanine level (metabolomics signal): 6.40E+06 and 7.71E+06 and 9.55E+06
  L-arginine level (metabolomics signal): 1.10E+07 and 7.60E+06 and 2.77E+06
  L-asparagine level (metabolomics signal): 1.89E+06 and 2.56E+06 and 2.42E+06
  L-aspartate level (metabolomics signal): 1.71E+07 and 2.26E+07 and 2.06E+07
  L-cysteine level (metabolomics signal): 7.54E+05 and 3.33E+05 and 7.35E+04
  L-glutamate level (metabolomics signal): 1.88E+07 and 2.22E+07 and 2.32E+07
  L-glutamine level (metabolomics signal): 2.62E+07 and 2.59E+07 and 2.28E+07
  L-histidine level (metabolomics signal): 1.62E+06 and 1.23E+06 and 1.63E+06
  L-isoleucine level (metabolomics signal): 3.04E+07 and 2.95E+07 and 2.26E+07
  L-leucine level (metabolomics signal): 9.83E+07 and 1.22E+08 and 9.50E+07
  L-lysine level (metabolomics signal): 3.76E+06 and 3.81E+06 and 3.28E+06
  L-methionine level (metabolomics signal): 1.04E+07 and 1.29E+07 and 9.06E+06
  L-phenylalanine level (metabolomics signal): 4.95E+06 and 5.41E+06 and 4.32E+06
  L-proline level (metabolomics signal): 3.86E+07 and 3.62E+07 and 3.21E+07
  L-serine level (metabolomics signal): 1.54E+06 and 1.82E+06 and 2.05E+06
  L-threonine level (metabolomics signal): 2.66E+06 and 3.06E+06 and 2.69E+06
  L-tryptophan level (metabolomics signal): 5.64E+06 and 3.84E+06 and 3.64E+06
  L-tyrosine level (metabolomics signal): 1.11E+07 and 1.27E+07 and 8.94E+06
  L-valine level (metabolomics signal): 9.15E+07 and 1.15E+08 and 1.39E+08
  dCMP level (metabolomics signal): 3.07E+04 and 2.16E+04 and 2.21E+04
  dTMP level (metabolomics signal): 1.28E+06 and 1.67E+06 and 9.76E+05
  glycine level (metabolomics signal): 9.91E+05 and 9.30E+05 and 1.13E+06
[1]
  N-Acyl-D-aspartate (C06380) metabolite signal: 2.50E+05 and 2.72E+05 (2×)
  Poly-gamma-D-glutamate (C05723) metabolite signal: 1.72E+07 and 2.04E+07 and 1.59E+07
[2]
  D-Ribitol 5-phosphate (C01068) metabolite signal: 2.00E+04 and 3.48E+04 and 2.09E+04
  D-glucono-1,5-lactone (C00198) metabolite signal: 5.28E+05 and 7.59E+05 and 7.80E+05
  L-Noradrenaline (C00547) metabolite signal: 2.74E+05 and 1.74E+05 and 9.62E+04
  Oxalosuccinate (C05379) metabolite signal: 1.90E+05 and 1.88E+05 and 1.84E+05
  Pyridoxamine (C00534) metabolite signal: 3.31E+04 and 3.01E+04 and 2.36E+04
  Thioredoxin disulfide (C00343) metabolite signal: 8.00E+04 and 1.23E+05 and 3.03E+04
[3]
  1-4-beta-D-Xylan (metabolite signal): 2.50E+05 and 2.94E+05 and 2.54E+05
  2-Hydroxyglutarate/Citramalate (C02630) metabolite signal: 2.14E+05 and 2.40E+05 and 2.04E+05
  5-6-Dihydrothymine (C00906) metabolite signal: 3.14E+05 and 3.41E+05 and 2.85E+05
  5-10-Methenyltetrahydrofolate (metabolite signal): 2.33E+05 and 3.06E+05 and 3.71E+05
  5-Hydroxyisourate (C11821) metabolite signal: 2.99E+06 and 4.00E+06 and 4.10E+06
  5-L-Glutamyl-taurine (metabolite signal): 1.28E+05 and 9.38E+04 and 1.74E+05
  5-Oxoproline (metabolite signal): 1.06E+06 and 1.19E+06 and 1.05E+06
  (S)(+)-Allantoin (C02350) metabolite signal: 3.96E+04 and 4.19E+04 and 4.78E+04
  Allantoate (C00499) metabolite signal: 5.92E+05 and 4.20E+05 and 1.48E+05
  Ascorbate (metabolite signal): 1.27E+05 and 1.55E+05 and 1.07E+05
  CMP-N-acetylneuraminate (metabolite signal): 3.49E+04 and 6.40E+04 and 4.41E+04
  Carnosine (metabolite signal): 1.74E+05 and 2.21E+05 and 3.49E+05
  Citrate (C00158) metabolite signal: 3.66E+04 and 3.31E+04 and 3.64E+04
  Creatine (metabolite signal): 2.22E+08 and 2.62E+08 and 3.28E+08
  Creatinine (metabolite signal): 3.21E+06 and 3.75E+06 and 4.22E+06
  Cys-Gly (metabolite signal): 2.17E+06 and 2.00E+06 and 1.46E+06
  D-Glucosamine (metabolite signal): 1.02E+05 and 8.07E+04 and 1.48E+05
  D-Glucose (C00031) metabolite signal: 6.82E+06 and 7.47E+06 and 6.93E+06
  D-Ribose (C00121) metabolite signal: 1.55E+05 and 2.41E+05 and 2.38E+05
  Dehydroascorbate (metabolite signal): 1.97E+04 and 1.24E+04 and 6.28E+03
  Dihydrofolate (metabolite signal): 2.52E+06 and 2.25E+06 and 7.96E+05
  Dimethylglycine (metabolite signal): 8.88E+05 and 1.01E+06 and 1.45E+06
  Diphosphate (C00013) metabolite signal: 6.51E+03 and 2.62E+03 and 7.12E+02
  Fumarate (C00122) metabolite signal: 1.66E+05 and 1.93E+05 and 1.68E+05
  Glutathione (C00051) metabolite signal: 1.67E+08 and 1.41E+08 and 9.66E+07
  Glutathione disulfide (metabolite signal): 3.84E+05 and 6.78E+05 and 4.93E+05
  Hypoxanthine (C00262) metabolite signal: 1.47E+05 and 1.29E+05 and 1.33E+05
  IMP (C00130) metabolite signal: 7.71E+04 and 2.73E+04 and 2.17E+04
  Inosine (C00294) metabolite signal: 9.47E+04 and 1.13E+05 and 1.20E+05
  L-Citrulline (metabolite signal): 1.15E+06 and 1.84E+06 and 2.36E+06
  L-Homoserine (metabolite signal): 2.11E+05 and 2.32E+05 and 1.47E+05
  Lactate (C01432) metabolite signal: 7.24E+06 and 8.30E+06 and 8.24E+06
  Malate (C00149) metabolite signal: 5.52E+05 and 5.73E+05 and 5.31E+05
  Mannitol (C00392) metabolite signal: 8.67E+04 and 1.22E+05 and 1.45E+05
  N-Acetylneuraminate (metabolite signal): 2.28E+04 and 3.32E+04 and 3.78E+04
  N-Glycoloyl-neuraminate (metabolite signal): 2.22E+05 and 2.27E+05 and 1.72E+05
  NAD+ (C00003) metabolite signal: 4.26E+04 and 2.68E+05 and 2.34E+05
  Nicotinamide (C00153) metabolite signal: 1.57E+07 and 2.35E+07 and 2.66E+07
  Ornithine (metabolite signal): 2.19E+06 and 2.53E+06 and 2.49E+06
  Oxaloacetate (C00036) metabolite signal: 6.97E+04 and 6.01E+04 and 4.98E+04
  Phosphoserine (metabolite signal): 4.87E+04 and 2.38E+05 and 2.25E+05
  Putrescine (metabolite signal): 4.73E+04 and 6.21E+04 and 7.27E+04
  Pyridoxal (C00250) metabolite signal: 5.83E+04 and 4.46E+04 and 6.28E+04
  Pyruvate (C00022) metabolite signal: 1.18E+06 and 1.33E+06 and 1.20E+06
  S-Glutathionyl-L-cysteine (metabolite signal): 1.80E+05 and 2.28E+05 and 9.16E+04
  Sedoheptulose 1-phosphate (C06222) metabolite signal: 5.23E+04 and 6.25E+04 and 4.82E+04
  Spermidine (metabolite signal): 1.16E+07 and 9.80E+06 and 1.05E+07
  Spermine (metabolite signal): 9.70E+06 and 8.73E+06 and 7.99E+06
  Succinate (C00042) metabolite signal: 9.79E+04 and 1.14E+05 and 1.10E+05
  Thymidine (C00214) metabolite signal: 2.50E+04 and 1.31E+04 and 1.15E+04
  UDP (C00015) metabolite signal: 6.45E+05 and 4.64E+05 and 1.60E+05
  UDP-N-acetyl-D-glucosamine (metabolite signal): 3.60E+04 and 3.50E+04 and 3.40E+04
  UDP-glucose (C00029) metabolite signal: 1.12E+05 and 1.15E+05 and 9.19E+04
  Urate (C00366) metabolite signal: 4.94E+04 and 4.14E+04 and 3.72E+04
  Xanthine (C00385) metabolite signal: 2.85E+05 and 3.63E+05 and 3.38E+05
  alpha-D-Glucosamine 1-phosphate (metabolite signal): 1.10E+06 and 1.63E+06 and 3.07E+06
  alpha-D-Ribose 1-phosphate (C00620) metabolite signal: 1.48E+05 and 1.44E+05 and 1.26E+05
  gamma-Glutamyl-gamma-aminobutyrate (metabolite signal): 8.69E+04 and 8.91E+04 and 1.07E+05
  gamma-L-Glutamyl-D-alanine (metabolite signal): 2.41E+04 and 3.08E+04 and 2.52E+04
  gamma-L-Glutamyl-L-cysteine (metabolite signal): 4.83E+04 and 5.61E+04 and 6.44E+03
